In PubChem BioAssay (NCI):
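Five compound concentrations were applied to cells in 96-well plates for 48 hours; endpoints were derived by simple linear interpolation of the resulting dose-response curve. TGI denotes the concentration required for complete inhibition of growth.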

Key:
Test in all cases: inhibition of tumour cell growth, NCI panel, 48 h
OVCAR-5 ovarian = tested on: OVCAR-5 ovarian
TK-10 renal = tested on: TK-10 renal
NCI-H460 lung = tested on: NCI-H460 lung
HOP-92 NSCLC = tested on: HOP-92 NSCLC
UACC-257 melanoma = tested on: UACC-257 melanoma
DMS 273 small cell lung = tested on: DMS 273 small cell lung
UACC-62 melanoma = tested on: UACC-62 melanoma
OVCAR-4 ovarian = tested on: OVCAR-4 ovarian
KM12 colon = tested on: KM12 colon
U251 CNS = tested on: U251 CNS
HOP-18 NSCLC = tested on: HOP-18 NSCLC
HCC-2998 colon = tested on: HCC-2998 colon
SF-295 CNS = tested on: SF-295 CNS
HL-60(TB) leukemia = tested on: HL-60(TB) leukemia
HCT-15 colon = tested on: HCT-15 colon
CAKI-1 renal = tested on: CAKI-1 renal
OVCAR-3 ovarian = tested on: OVCAR-3 ovarian
RXF-631 renal = tested on: RXF-631 renal
M19-MEL melanoma = tested on: M19-MEL melanoma
NCI-H23 lung = tested on: NCI-H23 lung
RPMI-8226 leukemia = tested on: RPMI-8226 leukemia
SNB-19 CNS = tested on: SNB-19 CNS
SN12C renal = tested on: SN12C renal
UO-31 renal = tested on: UO-31 renal
IGROV1 ovarian = tested on: IGROV1 ovarian
A498 renal = tested on: A498 renal
DLD-1 colon = tested on: DLD-1 colon
MOLT-4 leukemia = tested on: MOLT-4 leukemia
EKVX NSCLC = tested on: EKVX NSCLC
A549 NSCLC = tested on: A549 NSCLC
CCRF-CEM leukemia = tested on: CCRF-CEM leukemia
LOX IMVI melanoma = tested on: LOX IMVI melanoma
SK-MEL-28 melanoma = tested on: SK-MEL-28 melanoma
SK-MEL-5 melanoma = tested on: SK-MEL-5 melanoma
M14 melanoma = tested on: M14 melanoma
NCI-H226 lung = tested on: NCI-H226 lung
HOP-62 NSCLC = tested on: HOP-62 NSCLC
SNB-78 CNS = tested on: SNB-78 CNS
DMS 114 small cell lung = tested on: DMS 114 small cell lung
SF-268 CNS = tested on: SF-268 CNS
NCI-H522 lung = tested on: NCI-H522 lung
SK-MEL-2 melanoma = tested on: SK-MEL-2 melanoma
MALME-3M melanoma = tested on: MALME-3M melanoma
OVCAR-8 ovarian = tested on: OVCAR-8 ovarian
HT29 colon = tested on: HT29 colon
XF 498 CNS = tested on: XF 498 CNS
SR leukemia = tested on: SR leukemia
786-0 renal = tested on: 786-0 renal
K-562 leukemia = tested on: K-562 leukemia
LXFL 529 NSCLC = tested on: LXFL 529 NSCLC
HCT-116 colon = tested on: HCT-116 colon
SW-620 colon = tested on: SW-620 colon
COLO 205 colon = tested on: COLO 205 colon
ACHN renal = tested on: ACHN renal
SK-OV-3 ovarian = tested on: SK-OV-3 ovarian
SNB-75 CNS = tested on: SNB-75 CNS
SF-539 CNS = tested on: SF-539 CNS
RXF 393 renal = tested on: RXF 393 renal
KM20L2 colon = tested on: KM20L2 colon

In the case of `Cn1ncc2c(Nc3ccc(Cl)cc3)c3ccccc3nc21`, the TGI (OVCAR-5 ovarian) is reported as 47.5 µM, the TGI (TK-10 renal) is reported as 77.3 µM and the TGI (NCI-H460 lung) is reported as 52.7 µM. For the same compound, the TGI (HOP-92 NSCLC) was 39.1 µM, the TGI (UACC-257 melanoma) was 31.7 µM and the TGI (DMS 273 small cell lung) was 35.5 µM. The TGI (UACC-62 melanoma) was 31.6 µM, the TGI (OVCAR-4 ovarian) was 29.2 µM and the TGI (KM12 colon) was 40.9 µM. For the same compound, the TGI (U251 CNS) was 29.3 µM, the TGI (HOP-18 NSCLC) was 69.5 µM and the TGI (HCC-2998 colon) was 39.7 µM. It also gave a TGI (SF-295 CNS) of 36 µM, a TGI (HL-60(TB) leukemia) of 73.6 µM and a TGI (HCT-15 colon) of 40 µM. The TGI (CAKI-1 renal) was 80.6 µM, the TGI (OVCAR-3 ovarian) was 46.2 µM and the TGI (RXF-631 renal) was 33.5 µM. The TGI (M19-MEL melanoma) was 37.2 µM, the TGI (NCI-H23 lung) was greater than 10 µM and the TGI (RPMI-8226 leukemia) was 93.9 µM. For the same compound, the TGI (SNB-19 CNS) was 43.9 µM, the TGI (SN12C renal) was 58.3 µM and the TGI (UO-31 renal) was greater than 10 µM. The TGI (IGROV1 ovarian) was 54.7 µM, the TGI (A498 renal) was 29.7 µM and the TGI (DLD-1 colon) was 30.3 µM. The TGI (MOLT-4 leukemia) was 63.2 µM, the TGI (EKVX NSCLC) was greater than 10 µM and the TGI (A549 NSCLC) was 43.2 µM. It also gave a TGI (CCRF-CEM leukemia) of 56.7 µM, a TGI (LOX IMVI melanoma) of 32.7 µM and a TGI (SK-MEL-28 melanoma) of 29.7 µM. The TGI (SK-MEL-5 melanoma) was 26.7 µM, the TGI (M14 melanoma) was 28.3 µM and the TGI (NCI-H226 lung) was 35.4 µM. It also gave a TGI (HOP-62 NSCLC) of 31.9 µM, a TGI (SNB-78 CNS) of 74.6 µM and a TGI (DMS 114 small cell lung) of 34.5 µM. It also gave a TGI (SF-268 CNS) of 51.5 µM, a TGI (NCI-H522 lung) of 37.2 µM and a TGI (SK-MEL-2 melanoma) of 33.7 µM. The TGI (MALME-3M melanoma) was 39.7 µM, the TGI (OVCAR-8 ovarian) was 30.3 µM and the TGI (HT29 colon) was 27.1 µM. The TGI (XF 498 CNS) was greater than 10 µM, the TGI (SR leukemia) was greater than 100 µM and the TGI (786-0 renal) was 32.4 µM. The TGI (K-562 leukemia) was 56.7 µM, the TGI (LXFL 529 NSCLC) was 34.7 µM and the TGI (HCT-116 colon) was 26.4 µM. The TGI (SW-620 colon) was 39.1 µM, the TGI (COLO 205 colon) was 42.4 µM and the TGI (ACHN renal) was 55.9 µM. For the same compound, the TGI (SK-OV-3 ovarian) was 54.9 µM, the TGI (SNB-75 CNS) was 29.2 µM and the TGI (SF-539 CNS) was 30.1 µM.

In the case of `O=[N+]([O-])c1ccc(-c2noc(-c3ccccc3)c2C2=NCCN2)cc1`, the TGI (OVCAR-5 ovarian) is reported as greater than 100 µM, the TGI (NCI-H460 lung) is reported as greater than 100 µM and the TGI (UACC-257 melanoma) is reported as greater than 100 µM. For the same compound, the TGI (UACC-62 melanoma) was greater than 100 µM, the TGI (OVCAR-4 ovarian) was greater than 100 µM and the TGI (KM12 colon) was greater than 100 µM. It also gave a TGI (U251 CNS) greater than 100 µM, a TGI (HOP-18 NSCLC) greater than 100 µM and a TGI (HCC-2998 colon) greater than 100 µM. It also gave a TGI (SF-295 CNS) greater than 100 µM, a TGI (HL-60(TB) leukemia) greater than 100 µM and a TGI (HCT-15 colon) greater than 100 µM. For the same compound, the TGI (CAKI-1 renal) was greater than 100 µM, the TGI (OVCAR-3 ovarian) was 90.8 µM and the TGI (RXF-631 renal) was greater than 100 µM. The TGI (M19-MEL melanoma) was greater than 100 µM, the TGI (RPMI-8226 leukemia) was greater than 100 µM and the TGI (SNB-19 CNS) was greater than 100 µM. For the same compound, the TGI (SN12C renal) was greater than 100 µM, the TGI (UO-31 renal) was greater than 100 µM and the TGI (IGROV1 ovarian) was greater than 100 µM. For the same compound, the TGI (DLD-1 colon) was greater than 100 µM, the TGI (MOLT-4 leukemia) was greater than 100 µM and the TGI (EKVX NSCLC) was greater than 100 µM. For the same compound, the TGI (A549 NSCLC) was greater than 100 µM, the TGI (CCRF-CEM leukemia) was greater than 100 µM and the TGI (LOX IMVI melanoma) was greater than 100 µM. For the same compound, the TGI (SK-MEL-28 melanoma) was greater than 100 µM, the TGI (SK-MEL-5 melanoma) was greater than 100 µM and the TGI (M14 melanoma) was greater than 100 µM. For the same compound, the TGI (NCI-H226 lung) was greater than 100 µM, the TGI (HOP-62 NSCLC) was greater than 100 µM and the TGI (SNB-78 CNS) was greater than 100 µM. For the same compound, the TGI (SF-268 CNS) was greater than 100 µM, the TGI (NCI-H522 lung) was greater than 100 µM and the TGI (SK-MEL-2 melanoma) was greater than 100 µM. The TGI (MALME-3M melanoma) was greater than 100 µM, the TGI (OVCAR-8 ovarian) was greater than 100 µM and the TGI (HT29 colon) was greater than 100 µM. For the same compound, the TGI (XF 498 CNS) was greater than 100 µM, the TGI (SR leukemia) was greater than 100 µM and the TGI (786-0 renal) was greater than 100 µM. The TGI (K-562 leukemia) was greater than 100 µM, the TGI (RXF 393 renal) was greater than 100 µM and the TGI (LXFL 529 NSCLC) was greater than 100 µM. It also gave a TGI (HCT-116 colon) greater than 100 µM, a TGI (SW-620 colon) greater than 100 µM and a TGI (COLO 205 colon) greater than 100 µM. It also gave a TGI (ACHN renal) greater than 100 µM, a TGI (SNB-75 CNS) greater than 100 µM and a TGI (SF-539 CNS) greater than 100 µM. The TGI (KM20L2 colon) was greater than 100 µM.

`CC(=O)OCC1(C)C(OC(C)=O)CCC2(C)C(CC(OC(C)=O)C3=CCOC3=O)C(O)(CO)CCC12` (stereo not drawn) gave a TGI (OVCAR-5 ovarian) greater than 100 µM, a TGI (TK-10 renal) greater than 100 µM and a TGI (NCI-H460 lung) greater than 100 µM. It also gave a TGI (HOP-92 NSCLC) greater than 100 µM, a TGI (UACC-257 melanoma) greater than 100 µM and a TGI (DMS 273 small cell lung) greater than 100 µM. The TGI (UACC-62 melanoma) was greater than 100 µM, the TGI (OVCAR-4 ovarian) was greater than 100 µM and the TGI (KM12 colon) was greater than 100 µM. It also gave a TGI (U251 CNS) greater than 100 µM, a TGI (HOP-18 NSCLC) greater than 100 µM and a TGI (HCC-2998 colon) greater than 100 µM. For the same compound, the TGI (SF-295 CNS) was greater than 100 µM, the TGI (HL-60(TB) leukemia) was greater than 100 µM and the TGI (CAKI-1 renal) was greater than 100 µM. The TGI (OVCAR-3 ovarian) was greater than 100 µM, the TGI (RXF-631 renal) was greater than 100 µM and the TGI (M19-MEL melanoma) was greater than 100 µM. For the same compound, the TGI (NCI-H23 lung) was greater than 100 µM, the TGI (RPMI-8226 leukemia) was greater than 100 µM and the TGI (SNB-19 CNS) was greater than 100 µM. The TGI (SN12C renal) was greater than 100 µM, the TGI (UO-31 renal) was greater than 100 µM and the TGI (IGROV1 ovarian) was greater than 100 µM. For the same compound, the TGI (A498 renal) was greater than 100 µM, the TGI (DLD-1 colon) was greater than 100 µM and the TGI (EKVX NSCLC) was greater than 100 µM. It also gave a TGI (A549 NSCLC) greater than 100 µM, a TGI (CCRF-CEM leukemia) greater than 100 µM and a TGI (LOX IMVI melanoma) greater than 100 µM. The TGI (SK-MEL-28 melanoma) was greater than 100 µM, the TGI (SK-MEL-5 melanoma) was greater than 100 µM and the TGI (M14 melanoma) was greater than 100 µM. It also gave a TGI (NCI-H226 lung) greater than 100 µM, a TGI (HOP-62 NSCLC) greater than 100 µM and a TGI (SNB-78 CNS) greater than 100 µM. It also gave a TGI (SF-268 CNS) greater than 100 µM, a TGI (NCI-H522 lung) greater than 100 µM and a TGI (MALME-3M melanoma) greater than 100 µM. For the same compound, the TGI (OVCAR-8 ovarian) was greater than 100 µM, the TGI (HT29 colon) was greater than 100 µM and the TGI (XF 498 CNS) was greater than 100 µM. It also gave a TGI (786-0 renal) greater than 100 µM, a TGI (K-562 leukemia) greater than 100 µM and a TGI (RXF 393 renal) greater than 100 µM. The TGI (LXFL 529 NSCLC) was greater than 100 µM, the TGI (HCT-116 colon) was greater than 100 µM and the TGI (SW-620 colon) was greater than 100 µM. The TGI (COLO 205 colon) was greater than 100 µM, the TGI (ACHN renal) was greater than 100 µM and the TGI (SK-OV-3 ovarian) was greater than 100 µM. For the same compound, the TGI (SNB-75 CNS) was greater than 100 µM, the TGI (SF-539 CNS) was greater than 100 µM and the TGI (KM20L2 colon) was greater than 100 µM.
